Experimental data from patent US5627035A, “Peptides that block human immunodeficiency virus and methods of use thereof” (Syntello Vaccine Development AB, priority 1995, dated 1997).
Where a SMILES comes first, the peptide text is derived from it.

Legend:
[1] = test system: HTLV-111B/H9 New York; test: Infectivity assay HTLV-IIIB/H9 New York: p24 ELISA (absorbance 454 nm of diluted supernatant), syncytia, immunofluorescence; type: cell-based, HIV-1; details: for # OF SYNCYTIA/WELL Day 14 / PERCENTAGE OF AG POS CELLS / p24 1/10 / p24 1/100 / p24 1/1,000: Table 6; for HIV infection by p24 synthesis and syncytia formation, in words: Tables 3-6
Method: Virus at 100 50% tissue culture infectious doses (TCID50) and peptides at concentrations of 250 and 25 μg/ml were added to the cells simultaneously and incubated for 2 hours at 4° C. with frequent stirring. Subsequently, the temperature was increased to 37° C. and the mixtures were subjected to a second incubation for 2 hours. Following the second incubation, the cells were centrifuged at 325 x g and washed once in RPMI medium (Gibco Laboratories, N.Y.). Cells, at a concentration of 5×10^5 /ml, were then added to 24 multidish well plates at a final volume of 1.5 ml of growth medium (RPMI supplemented with 10% fetal calf serum (FCS), antibiotics and polybrene (2 μg/ml)), with the addition of peptides at dilutions of 250 or 25 μg/ml. […] As additional controls, two HIV infected cell cultures (designated pos. controls 1 and 2, Tables 3-5) and two uninfected cell cultures (designated neg. controls 1 and 2) were used.
Infected cells were continuously monitored for formation of syncytia and the growth medium supernatants were analyzed at days 9-12 p.i. for p24 antigen which is an indicator of HIV replication.
Briefly, the following protocol was used for detection of the p24 antigen. HIV p24 antigen was determined using a rabbit anti-p24 polyclonal antiserum as capture antibody and a biotinylated rabbit anti-p24 polyclonal antibody was used as detecting antibody in an avidin-horse radish peroxidase (HRP) ELISA. The sensitivity of the assay allowed detection of approximately 50 pg of p24 antigen per ml supernatant. […] Serial dilutions of the supernatants were made so as to detect p24 concentration in the most accurate range (<2.0 absorbance units).
The number of infected cells were then determined by indirect immunofluorescence using a human HIV positive serum diluted 1/100 and FITC conjugated antihuman IgG (Bio Merieux, France) diluted 1/200.
In tables 3-6, the p24 content of the supernatants of infected cells was determined by diluting the supernatants of infected cells in serial tenfold dilutions (1/10, 1/100, 1/1000 and 1/10,000) and analyzing in ELISA as described above. Results are indicated by the absorbance values (454nm) of respective dilutions.
In tables 8 and 9, the p24 content of the supernatants of infected cells was determined by diluting the supernatants in serial tenfold dilutions (1/10, 1/100, 1/1,000) and analyzing by ELISA as described in Example 2. Results are indicated by the absorbance values (454 nm) of respective dilutions.

[2] = test system: herpes simplex virus type I (HSV-1) strain McIntyre; test: Yield inhibition assay of HSV-1 in GMK cells; type: cell-based; details: plaque reduction and virus yields
Method: The yield inhibition assay was performed as follows: HSV-1 was inoculated at a multiplicity of 0.5 pfu per GMK cell in the presence of the respective peptide at concentrations of 250 and 25 μg/ml. Virus adsorption was performed for 60 min. at room temperature. The cells were then rinsed five times with Hanks' Balanced Salt Solution (BSS) and incubated in a 5% CO2 atmosphere at 37° C. with maintenance medium containing either peptides or acyclovir, according to the methods described in "Proceedings of a Symposium on Acyclovir", The American Journal of Medicine, Jul. 20, (1982) which is incorporated herein by reference, or without any additives. Twenty-four hours p.i. the cells were freeze-thawed, scraped into the medium and tested for virus yield by the infectivity assay as outlined in Example 2. The results are shown in Table 7 where the plaque reduction values are the mean of two cultures and the yield of HSV-1 after 24 hours is the mean of two determinations and the values are presented in millions of pfu/ml.

[3] = In vivo toxicity: growth of mice given intraperitoneal Gly-Pro-Gly; parameters: Mean weight of mice: unit not given here
Text: In an in vivo test of the toxicity of Gly-Pro-Gly, groups of mice were given intraperitoneal injections of the substance starting at an age of 6 days. FIG. 3 also graphically depicts the results. […] The peptides are thus nontoxic even when given in large doses.

[4] = test system: normal T cells; test: In vitro proliferative response of normal T cells to mitogens, stimulation index; type: cell-based, human
Method: The in vitro proliferative response of normal T cells was examined after concurrent exposure of unfractionated, and T cell enriched (CD4^+ or CD8^+ enriched using DYNABEADS M-450 CD4 and DYNABEADS M-450 CD, magnetic beads according to the manufacturer's instructions, DYNAL A. S. Oslo Norway).
The results are indicated as the stimulation index which is calculated as follows: the ratio between radioactive Thymidine incorporated in cell cultures exposed to mitogen alone or mitogen plus Gly-Pro-Gly divided by the radioactive Thymidine incorporated in identical cell cultures exposed to medium alone.

[5] = Humoral anti-TNP antibody response in mice pretreated with Gly-Pro-Gly, ELISA endpoint titer; type: in vivo; details: 5 mg/day/animal for 5 days
Method: The effects of Gly-Pro-Gly on development of humoral specific antibody responses was examined in mice. For this purpose, Gly-Pro-Gly was administered in adult (4 weeks old, sex matched) Swiss albino outbred mice by intraperitoneal injections given daily for 5 consecutive days. The control group was not given Gly-Pro-Gly, whereas the second and third groups were given 0.5 mg and 5 mg Gly-Pro-Gly respectively. […]
Serum antibody responses to the TNP group were monitored by the ELISA technique performed on serum samples collected 2 weeks after the second injection. […]
ELISA assays were performed as follows. […] TNP-reactive antibodies were then detected by stepwise addition of enzyme labelled goat antibodies to mouse IgG1, IgG2a, IgG2b, IgG3 or IgM (all obtained from Southern Biotechnology Associates, Birmingham, Ala.) and enzyme substrate. Results are expressed as endpoint titer, the latter being defined as the reciprocal of the highest dilution of serum giving an ELISA absorbance value equal to 3 times that of control wells exposed to buffer alone but not serum.

Compound: Gly-Pro-Gly-Gly (GPGG; printed: Gly-Pro-Gly-Gly)
- # OF SYNCYTIA/WELL Day 14 ([1]; 25 μg/ml): 15
- PERCENTAGE OF AG POS CELLS ([1]; 25 μg/ml): 25-30%
- p24 1/10 ([1]; 25 μg/ml): 0.933
- p24 1/100 ([1]; 25 μg/ml): 0.11
- p24 1/1,000 ([1]; 25 μg/ml): 0.016
- # OF SYNCYTIA/WELL Day 14 ([1]; 250 μg/ml): 20
- PERCENTAGE OF AG POS CELLS ([1]; 250 μg/ml): 30%
- p24 1/10 ([1]; 250 μg/ml): 0.523
- p24 1/100 ([1]; 250 μg/ml): 0.052
- p24 1/1,000 ([1]; 250 μg/ml): 0.007
- HIV infection by p24 synthesis and syncytia formation, in words [1]: no inhibitory effect on HIV replication

Compound: Nc1nc2c(ncn2COCCO)c(=O)[nH]1 [Acyclovir, acyclovir]
- capacity of HSV-1 to replicate in GMK cells, in words [2]: significantly reduced

Compound: Gly-Pro-Ala
- # OF SYNCYTIA/WELL Day 14 ([1]; 25 μg/ml): 85
- PERCENTAGE OF AG POS CELLS ([1]; 25 μg/ml): 30-40%
- p24 1/10 ([1]; 25 μg/ml): > 2.0
- p24 1/100 ([1]; 25 μg/ml): 0.616
- p24 1/1,000 ([1]; 25 μg/ml): 0.154
- # OF SYNCYTIA/WELL Day 14 ([1]; 250 μg/ml): 20
- PERCENTAGE OF AG POS CELLS ([1]; 250 μg/ml): 20-30%
- p24 1/10 ([1]; 250 μg/ml): > 2.0
- p24 1/100 ([1]; 250 μg/ml): 0.299
- p24 1/1,000 ([1]; 250 μg/ml): 0.059
- HIV infection by p24 synthesis and syncytia formation, in words [1]: no inhibitory effect on HIV replication

Compound: NCC(=O)N1CCC[C@H]1C(=O)NCC(N)=O [Gly-Pro-Gly] (H-Gly-Pro-Gly-NH2)
- Mean weight of mice ([3]; Feb. 25, 0.001 g GPG i.p.): 5.66
- Mean weight of mice ([3]; Feb. 25, 0.1 g GPG i.p.): 4.98
- Mean weight of mice ([3]; Feb. 25, 1 g GPG i.p.): 5.62
- Mean weight of mice ([3]; Feb. 26, 0.001 g GPG i.p.): 6.24
- Mean weight of mice ([3]; Feb. 26, 0.1 g GPG i.p.): 5.54
- Mean weight of mice ([3]; Feb. 26, 1 g GPG i.p.): 6.27
- Mean weight of mice ([3]; Feb. 27, 0.001 g GPG i.p.): 6.76
- Mean weight of mice ([3]; Feb. 27, 0.1 g GPG i.p.): 6.41
- Mean weight of mice ([3]; Feb. 27, 1 g GPG i.p.): 7.04
- Mean weight of mice ([3]; Feb. 28, 0.001 g GPG i.p.): 7.40
- Mean weight of mice ([3]; Feb. 28, 0.1 g GPG i.p.): 7.11
- Mean weight of mice ([3]; Feb. 28, 1 g GPG i.p.): 7.80
- Mean weight of mice ([3]; March 1, 0.001 g GPG i.p.): 7.83
- Mean weight of mice ([3]; March 1, 0.1 g GPG i.p.): 8.00
- Mean weight of mice ([3]; March 1, 1 g GPG i.p.): 8.61
- Mean weight of mice ([3]; March 4, 0.001 g GPG i.p.): 9.22
- Mean weight of mice ([3]; March 4, 0.1 g GPG i.p.): 9.35
- Mean weight of mice ([3]; March 4, 1 g GPG i.p.): 10.53
- Mean weight of mice ([3]; March 5, 0.001 g GPG i.p.): 9.63
- Mean weight of mice ([3]; March 5, 0.1 g GPG i.p.): 10.04
- Mean weight of mice ([3]; March 5, 1 g GPG i.p.): 11.22
- Mean weight of mice ([3]; March 6, 0.001 g GPG i.p.): 9.88
- Mean weight of mice ([3]; March 6, 0.1 g GPG i.p.): 10.35
- Mean weight of mice ([3]; March 6, 1 g GPG i.p.): 11.44
- Mean weight of mice ([3]; March 7, 0.001 g GPG i.p.): 9.95
- Mean weight of mice ([3]; March 7, 0.1 g GPG i.p.): 11.17
- Mean weight of mice ([3]; March 7, 1 g GPG i.p.): 12.12
- Mean weight of mice ([3]; March 8, 0.001 g GPG i.p.): 10.30
- Mean weight of mice ([3]; March 8, 0.1 g GPG i.p.): 11.38
- Mean weight of mice ([3]; March 8, 1 g GPG i.p.): 12.69
- Mean weight of mice ([3]; March 15, 0.001 g GPG i.p., no injections 3/8-3/15): 16.59
- Mean weight of mice ([3]; March 15, 0.1 g GPG i.p., no injections 3/8-3/15): 17.46
- Mean weight of mice ([3]; March 15, 1 g GPG i.p., no injections 3/8-3/15): 19.85
- influence on the growth of mice ([3]; compared with controls): no significant influence
- direct anti-proliferative properties on T cells ([4]; doses as high as 20 μM): marginal if any
- effect on normal T cell and B cell functions ([4]; in vitro human, in vivo murine): no effect
- humoral immune responsiveness of mice [5]: do not appreciably influence
